Assay results as given in patent US4001209A, “Antibiotic G-52 and method for the production thereof” (Schering Corporation, priority 1975, dated 1977).
Values after ≈ are worked out from the molar mass of the structure shown.

How the values were obtained:
Streptococcus pyogenes C = experiment: Minimum Inhibitory Concentration; assay type: cell-based; details: Tryptose phosphate broth at pH 7.2
Excerpt: (§1) Test Medium: Tryptose phosphate broth at pH 7.2.

[1] = test system: Staphylococcus aureus 209P; experiment: Minimum Inhibitory Concentration; assay type: cell-based; details: Tryptose phosphate broth at pH 7.2
Excerpt: as §1

[2] = test system: Pseudomonas aeruginosa 130 - GR; experiment: Minimum Inhibitory Concentration; assay type: cell-based; details: Tryptose phosphate broth at pH 7.2
Excerpt: as §1

Staphylococcus aureus 45 = experiment: Minimum Inhibitory Concentration; assay type: cell-based; details: Tryptose phosphate broth at pH 7.2
Excerpt: as §1

[3] = test system: Salmonella paratyphi 13311; experiment: Minimum Inhibitory Concentration; assay type: cell-based; details: Salmonella enterica, pH 7.2
Excerpt: as §1

[4] = test system: Klebsiella pneumoniae Ad 17 - kR; experiment: Minimum Inhibitory Concentration; assay type: cell-based; details: AD17KR, pH 7.2
Excerpt: as §1

Proteus mirabilis 8019 = experiment: Minimum Inhibitory Concentration; assay type: cell-based; details: Tryptose phosphate broth at pH 7.2
Excerpt: as §1

Escherichia coli 11775 = experiment: Minimum Inhibitory Concentration; assay type: cell-based; details: Tryptose phosphate broth at pH 7.2
Excerpt: as §1

Escherichia coli 578 = experiment: Minimum Inhibitory Concentration; assay type: cell-based; details: Tryptose phosphate broth at pH 7.2
Excerpt: as §1

[5] = test system: Pseudomonas aeruginosa 236 - GR; experiment: Minimum Inhibitory Concentration; assay type: cell-based; details: Tryptose phosphate broth at pH 7.2
Excerpt: as §1

Solubility = assay type: physicochemical
[6] = test system: gram-positive and gram-negative microorganisms; experiment: Antibacterial activity (general statement); assay type: cell-based
[7] = test system: Staphylococcus aureus A.T.C.C. 6538P; experiment: standard disc plate microbiological assay
Stability = assay type: physicochemical
[8] = test system: Staphylococcus aureus Gray; experiment: Protective Activity in mice; assay type: in vivo, Mice (Carworth Farms CF-1); details: sc, S.C., single dose of antibiotic (sulfate) 1 hour after intraperitoneal infection (10^7 organisms), survivors at 48 hours, read-out: PD50
Description: (§2) a. Mice (Carworth Farms CF-1 weighing about 18 - 20 grams) are treated with a single dose of antibiotic (sulfate) one (1) hour after an intraperitoneal infection with a lethal (10^7 organisms) quantity of the infectious organism. The number of survivors are determined 48 hours after infection and the data analyzed by standard probit procedures to determine the PD50 values with 95% confidence limits.

Escherichia coli = experiment: Protective Activity in mice; assay type: in vivo, Mice (Carworth Farms CF-1); details: sc, S.C., single dose of antibiotic (sulfate) 1 hour after intraperitoneal infection (10^7 organisms), survivors at 48 hours, read-out: PD50
Description: as §2

Pseudomonas aeruginosa = experiment: Protective Activity in mice; assay type: in vivo, Mice (Carworth Farms CF-1); details: sc, S.C., single dose of antibiotic (sulfate) 1 hour after intraperitoneal infection (10^7 organisms), survivors at 48 hours, read-out: PD50
Description: as §2

Acute Toxicity = details: mouse, in vivo, sc
Description: b. The acute toxicity of Antibiotic G-52 in the form of the sulfate salt is determined in the standard manner by administration of the antibiotic to mice (CF-1) intravenously, subcutaneously and intraperitoneally. The results are analyzed by standard probit procedures to determine the LD50 values with 95% confidence limits.

## CNCC1=CC[C@@H](N)[C@@H](O[C@H]2[C@H](O)[C@@H](O[C@H]3OC[C@](C)(O)[C@H](NC)[C@H]3O)[C@H](N)C[C@@H]2N)O1 [Antibiotic G-52]
Streptococcus pyogenes C
  MIC: 25 µg/mL (≈ 54.2 µM)
[1]
  MIC: 0.3 µg/mL (≈ 0.65 µM)
[2]
  MIC: 25 µg/mL (≈ 54.2 µM)
Staphylococcus aureus 45
  MIC: 0.8 µg/mL (≈ 1.73 µM)
[3]
  MIC: 17.5 µg/mL (≈ 37.9 µM)
[4]
  MIC: 0.8 µg/mL (≈ 1.73 µM)
Proteus mirabilis 8019
  MIC: 7.5 µg/mL (≈ 16.2 µM)
Escherichia coli 11775
  MIC: 3 µg/mL (≈ 6.5 µM)
Escherichia coli 578
  MIC: 7.5 µg/mL (≈ 16.2 µM)
[5]
  MIC: 25 µg/mL (≈ 54.2 µM)
Solubility; most polar organic solvents such as lower alcohols, dimethylformamide, dimethylsulfoxide, pyridine
  solubility in organic solvents: some degree of solubility
Solubility; water
  solubility in water: very soluble
[6]
  effect on growth of gram-positive and gram-negative microorganisms: adversely affect the growth
[7]; Staphylococcus aureus
  zone of inhibition at 1 µg/disc: 17.7 ± 1 mm
[7]; against standard antibiotic base (defined potency 1000 mcg/mg)
  potency (assay): about 1000 mcg/mg
Stability; MacIlvaines buffer from pH 2-8
  stable to boiling: ≥ 30 min
Stability; sodium hydroxide-boric acid buffer from pH 8-10
  stable to boiling: ≥ 30 min
[8]
  ED50: 2.5 mg/kg
Escherichia coli
  ED50: 2.5 mg/kg
Pseudomonas aeruginosa
  ED50: 1.5 mg/kg
Acute Toxicity
  LD50: 400 mg/kg
